Test results taken from PubChem BioAssay AID1963848 (Molecular Pharmacology Branch, DTP, NCI, 2024).

Tested on: 379773-124-R-J2-PDC spheroid viability
Experiment: Anticancer human tumor 379773-124-R-J2-PDC patient-derived endometrial carcinoma cell line growth inhibition [POLQ]
Settings: spheroids with HUVEC and MSC; for IC50: curve of first compound; for viability, T/C: stronger effect = lower value; active means viability on the fitted dose curve at most 10% of control; inactive means the rest
Method in brief: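 Complex spheroid viability model combining PDC tumour cells with endothelial (HUVEC) and MSC stromal cells. Novobiocin, ART-558 or RP6685 were tested singly and in combination with standard and investigational anticancer drugs. Each was titrated in half-log steps from near clinical Cmax, or from 10 microM where Cmax was unknown.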
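Further: spheroids exposed to drugs for seven days before readout.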
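Wherever viability, T/C is given: percent viability relative to DMSO vehicle control taken as 100%.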

C#Cc1c(F)ccc2cc(O)cc(-c3ncc4c(N5CC6CCC(C5)N6)nc(OCC56CCCN5CC(F)C6)nc4c3F)c12 (configuration not stated) + Cc1cccc(N(C)C(=O)C2C(O)CCN2c2nc(C)cc(C(F)(F)F)c2C#N)c1
inactive: viability, T/C (second compound 0.0316 µM, first compound 0.0316 µM) 81.5% | viability, T/C (second compound 0.0316 µM, first compound 0.1 µM) 89.3% | viability, T/C (second compound 0.0316 µM, first compound 0.316 µM) 84% | viability, T/C (second compound 0.0316 µM, first compound 1 µM) 74.6% | viability, T/C (second compound 0.0316 µM, first compound 3.16 µM) 84% | viability, T/C (second compound 0.0316 µM, first compound 10 µM) 82% | viability, T/C (second compound 0.1 µM, first compound 0.0316 µM) 93.8% | viability, T/C (second compound 0.1 µM, first compound 0.1 µM) 68.7% | viability, T/C (second compound 0.1 µM, first compound 0.316 µM) 85.8% | viability, T/C (second compound 0.1 µM, first compound 1 µM) 75.2% | viability, T/C (second compound 0.1 µM, first compound 3.16 µM) 84.8% | viability, T/C (second compound 0.1 µM, first compound 10 µM) 93% | viability, T/C (second compound 0.316 µM, first compound 0.0316 µM) 90.8% | viability, T/C (second compound 0.316 µM, first compound 0.1 µM) 93.4% | viability, T/C (second compound 0.316 µM, first compound 0.316 µM) 77.9% | viability, T/C (second compound 0.316 µM, first compound 1 µM) 86.5% | viability, T/C (second compound 0.316 µM, first compound 3.16 µM) 95.5% | viability, T/C (second compound 0.316 µM, first compound 10 µM) 88.4% | viability, T/C (second compound 1 µM, first compound 0.0316 µM) 80% | viability, T/C (second compound 1 µM, first compound 0.1 µM) 78.9% | viability, T/C (second compound 1 µM, first compound 0.316 µM) 73.2% | viability, T/C (second compound 1 µM, first compound 1 µM) 82.2% | viability, T/C (second compound 1 µM, first compound 3.16 µM) 95.9% | viability, T/C (second compound 1 µM, first compound 10 µM) 90.6% | viability, T/C (second compound 3.16 µM, first compound 0.0316 µM) 78.9% | viability, T/C (second compound 3.16 µM, first compound 0.1 µM) 87.3% | viability, T/C (second compound 3.16 µM, first compound 0.316 µM) 85.2% | viability, T/C (second compound 3.16 µM, first compound 1 µM) 80% | viability, T/C (second compound 3.16 µM, first compound 3.16 µM) 86.2% | viability, T/C (second compound 3.16 µM, first compound 10 µM) 79.4% | viability, T/C (second compound 10 µM, first compound 0.0316 µM) 84.9% | viability, T/C (second compound 10 µM, first compound 0.1 µM) 79.7% | viability, T/C (second compound 10 µM, first compound 0.316 µM) 74.2% | viability, T/C (second compound 10 µM, first compound 1 µM) 78.4% | viability, T/C (second compound 10 µM, first compound 3.16 µM) 88.9% | viability, T/C (second compound 10 µM, first compound 10 µM) 93.8%
> 10 µM: IC50 (second compound 0.0316 µM) | IC50 (second compound 0.1 µM) | IC50 (second compound 0.316 µM) | IC50 (second compound 1 µM) | IC50 (second compound 3.16 µM) | IC50 (second compound 10 µM)
